From PubChem BioAssay AID1259407 (Chemical Carcinogenesis Research Information System (CCRIS), 2018)
The source made the active and inactive calls. The rule behind the calls is not given here.

Test system: CCRIS mutagenicity, Ames/micronucleus/aberration tests
Assay: CCRIS mutagenicity studies
[1] = Test System: AMES SALMONELLA TYPHIMURIUM, Strain/Indicator: TA98, Metabolic Activation: NONE, Method: PREINCUBATION
[2] = Test System: AMES SALMONELLA TYPHIMURIUM, Strain/Indicator: TA100, Metabolic Activation: NONE, Method: PREINCUBATION
[3] = Test System: AMES SALMONELLA TYPHIMURIUM, Strain/Indicator: TA100, Metabolic Activation: NONE, Method: STANDARD PLATE
[4] = Test System: AMES SALMONELLA TYPHIMURIUM, Strain/Indicator: TA1535, Metabolic Activation: NONE, Method: PREINCUBATION
[5] = Test System: AMES SALMONELLA TYPHIMURIUM, Strain/Indicator: TA1538, Metabolic Activation: NONE, Method: PREINCUBATION

NCCNC(=O)c1ccc(Cl)cn1
mutagenic call (Test System: AMES SALMONELLA TYPHIMURIUM, Strain/Indicator: TA97, Metabolic Activation: NONE, Method: PREINCUBATION): inactive; negative
mutagenic call (Test System: AMES SALMONELLA TYPHIMURIUM, Strain/Indicator: TA97, Metabolic Activation: NONE, Method: STANDARD PLATE): inactive; negative
mutagenic call (Test System: AMES SALMONELLA TYPHIMURIUM, Strain/Indicator: TA97, Metabolic Activation: RAT, LIVER, S-9, PHENOBARBITAL AND BETA-NAPHTHOFLAVONE, Method: PREINCUBATION): inactive; negative
mutagenic call (Test System: AMES SALMONELLA TYPHIMURIUM, Strain/Indicator: TA97, Metabolic Activation: RAT, LIVER, S-9, PHENOBARBITAL AND BETA-NAPHTHOFLAVONE, Method: STANDARD PLATE): inactive; negative
mutagenic call [1]: inactive; negative
mutagenic call (Test System: AMES SALMONELLA TYPHIMURIUM, Strain/Indicator: TA98, Metabolic Activation: NONE, Method: STANDARD PLATE): inactive; negative
mutagenic call (Test System: AMES SALMONELLA TYPHIMURIUM, Strain/Indicator: TA98, Metabolic Activation: RAT, LIVER, S-9, PHENOBARBITAL AND BETA-NAPHTHOFLAVONE, Method: PREINCUBATION): inactive; negative
mutagenic call (Test System: AMES SALMONELLA TYPHIMURIUM, Strain/Indicator: TA98, Metabolic Activation: RAT, LIVER, S-9, PHENOBARBITAL AND BETA-NAPHTHOFLAVONE, Method: STANDARD PLATE): inactive; negative
mutagenic call [2]: inactive; negative
mutagenic call [3]: inactive; negative
mutagenic call (Test System: AMES SALMONELLA TYPHIMURIUM, Strain/Indicator: TA100, Metabolic Activation: RAT, LIVER, S-9, PHENOBARBITAL AND BETA-NAPHTHOFLAVONE, Method: PREINCUBATION): inactive; negative
mutagenic call (Test System: AMES SALMONELLA TYPHIMURIUM, Strain/Indicator: TA100, Metabolic Activation: RAT, LIVER, S-9, PHENOBARBITAL AND BETA-NAPHTHOFLAVONE, Method: STANDARD PLATE): inactive; negative
mutagenic call (Test System: AMES SALMONELLA TYPHIMURIUM, Strain/Indicator: TA102, Metabolic Activation: NONE, Method: PREINCUBATION): inactive; negative
mutagenic call (Test System: AMES SALMONELLA TYPHIMURIUM, Strain/Indicator: TA102, Metabolic Activation: NONE, Method: STANDARD PLATE): inactive; negative
mutagenic call (Test System: AMES SALMONELLA TYPHIMURIUM, Strain/Indicator: TA102, Metabolic Activation: RAT, LIVER, S-9, PHENOBARBITAL AND BETA-NAPHTHOFLAVONE, Method: PREINCUBATION): inactive; negative
mutagenic call (Test System: AMES SALMONELLA TYPHIMURIUM, Strain/Indicator: TA102, Metabolic Activation: RAT, LIVER, S-9, PHENOBARBITAL AND BETA-NAPHTHOFLAVONE, Method: STANDARD PLATE): inactive; negative
mutagenic call [4]: inactive; negative
mutagenic call (Test System: AMES SALMONELLA TYPHIMURIUM, Strain/Indicator: TA1535, Metabolic Activation: NONE, Method: STANDARD PLATE): inactive; negative
mutagenic call (Test System: AMES SALMONELLA TYPHIMURIUM, Strain/Indicator: TA1535, Metabolic Activation: RAT, LIVER, S-9, PHENOBARBITAL AND BETA-NAPHTHOFLAVONE, Method: PREINCUBATION): inactive; negative
mutagenic call (Test System: AMES SALMONELLA TYPHIMURIUM, Strain/Indicator: TA1535, Metabolic Activation: RAT, LIVER, S-9, PHENOBARBITAL AND BETA-NAPHTHOFLAVONE, Method: STANDARD PLATE): inactive; negative
mutagenic call (Test System: AMES SALMONELLA TYPHIMURIUM, Strain/Indicator: TA1537, Metabolic Activation: NONE, Method: PREINCUBATION): inactive; negative
mutagenic call (Test System: AMES SALMONELLA TYPHIMURIUM, Strain/Indicator: TA1537, Metabolic Activation: NONE, Method: STANDARD PLATE): inactive; negative
mutagenic call (Test System: AMES SALMONELLA TYPHIMURIUM, Strain/Indicator: TA1537, Metabolic Activation: RAT, LIVER, S-9, PHENOBARBITAL AND BETA-NAPHTHOFLAVONE, Method: PREINCUBATION): inactive; negative
mutagenic call (Test System: AMES SALMONELLA TYPHIMURIUM, Strain/Indicator: TA1537, Metabolic Activation: RAT, LIVER, S-9, PHENOBARBITAL AND BETA-NAPHTHOFLAVONE, Method: STANDARD PLATE): inactive; negative
mutagenic call [5]: inactive; negative
mutagenic call (Test System: AMES SALMONELLA TYPHIMURIUM, Strain/Indicator: TA1538, Metabolic Activation: NONE, Method: STANDARD PLATE): inactive; negative
mutagenic call (Test System: AMES SALMONELLA TYPHIMURIUM, Strain/Indicator: TA1538, Metabolic Activation: RAT, LIVER, S-9, PHENOBARBITAL AND BETA-NAPHTHOFLAVONE, Method: PREINCUBATION): inactive; negative
mutagenic call (Test System: AMES SALMONELLA TYPHIMURIUM, Strain/Indicator: TA1538, Metabolic Activation: RAT, LIVER, S-9, PHENOBARBITAL AND BETA-NAPHTHOFLAVONE, Method: STANDARD PLATE): inactive; negative
mutagenic call (Test System: CHINESE HAMSTER V-79, Strain/Indicator: V-79 (HPRT)/6-THIOGUANINE, Metabolic Activation: NONE): inactive; negative
mutagenic call (Test System: CHINESE HAMSTER V-79, Strain/Indicator: V-79 (HPRT)/6-THIOGUANINE, Metabolic Activation: RAT, LIVER, S-9, AROCLOR 1254): inactive; negative
mutagenic call (Test System: UDS RAT HEPATOCYTES, Strain/Indicator: THY INCORP, Metabolic Activation: NONE, Method: AUTORADIOGRAPHY): inactive; negative

O=C(O)C(Cl)Br (centres undefined)
mutagenic call (End Point: In vivo micronucleus, Test System: Peripheral blood normochromatic erythrocytes, Species: Mouse, Strain/Sex: B6C3F1/Female, Route: Oral): inactive; negative
mutagenic call (End Point: In vivo micronucleus, Test System: Peripheral blood normochromatic erythrocytes, Species: Mouse, Strain/Sex: B6C3F1/Male, Route: Oral): inactive; negative
mutagenic call [1]: inactive; negative
mutagenic call (Test System: AMES SALMONELLA TYPHIMURIUM, Strain/Indicator: TA98, Metabolic Activation: RAT, LIVER, S-9, PHENOBARBITAL AND 5,6-BENZOFLAVONE, Method: PREINCUBATION): inactive; negative
mutagenic call [2]: active; positive
mutagenic call (Test System: AMES SALMONELLA TYPHIMURIUM, Strain/Indicator: TA100, Metabolic Activation: RAT, LIVER, S-9, PHENOBARBITAL AND 5,6-BENZOFLAVONE, Method: PREINCUBATION): active; positive
mutagenic call (Test System: Ames Salmonella typhimurium, Strain/Indicator: TA98, Metabolic Activation: Hamster, Liver, S9, Aroclor 1254, Method: Preincubation): inactive; negative
mutagenic call (Test System: Ames Salmonella typhimurium, Strain/Indicator: TA98, Metabolic Activation: None, Method: Preincubation): inactive; negative
mutagenic call (Test System: Ames Salmonella typhimurium, Strain/Indicator: TA98, Metabolic Activation: Rat, Liver, S9, Aroclor 1254, Method: Preincubation): inactive; negative
mutagenic call (Test System: Ames Salmonella typhimurium, Strain/Indicator: TA100, Metabolic Activation: Hamster, Liver, S9, Aroclor 1254 (30%), Method: Preincubation): active; positive
mutagenic call (Test System: Ames Salmonella typhimurium, Strain/Indicator: TA100, Metabolic Activation: Rat, Liver, S9, Aroclor 1254 (10%), Method: Preincubation): active; positive
mutagenic call (Test System: Ames Salmonella typhimurium, Strain/Indicator: TA100, Metabolic Activation: Rat, Liver, S9, Aroclor 1254 (30%), Method: Preincubation): active; positive
mutagenic call (Test System: E. coli, Strain/Indicator: WP2 uvrA/pKM101, Metabolic Activation: None, Method: Preincubation): inactive; negative
mutagenic call (Test System: E. coli, Strain/Indicator: WP2 uvrA/pKM101, Metabolic Activation: Rat, Liver, S9, Aroclor 1254 (10%), Method: Preincubation): inactive; negative

CCCCCCCC(=O)CCc1ccc(O)c(OC)c1
mutagenic call [1]: inactive; negative
mutagenic call (Test System: AMES SALMONELLA TYPHIMURIUM, Strain/Indicator: TA98, Metabolic Activation: RAT LIVER S-9, SODIUM PHENOBARBITAL, Method: PREINCUBATION): inactive; negative
mutagenic call [2]: inactive; negative
mutagenic call (Test System: AMES SALMONELLA TYPHIMURIUM, Strain/Indicator: TA100, Metabolic Activation: RAT LIVER S-9, SODIUM PHENOBARBITAL, Method: PREINCUBATION): inactive; negative
mutagenic call [4]: inactive; negative
mutagenic call (Test System: AMES SALMONELLA TYPHIMURIUM, Strain/Indicator: TA1535, Metabolic Activation: RAT LIVER S-9, SODIUM PHENOBARBITAL, Method: PREINCUBATION): inactive; negative
mutagenic call [5]: inactive; negative
mutagenic call (Test System: AMES SALMONELLA TYPHIMURIUM, Strain/Indicator: TA1538, Metabolic Activation: RAT LIVER S-9, SODIUM PHENOBARBITAL, Method: PREINCUBATION): inactive; negative

COC(=O)[C@@H]1CS[C@@H]2C(Cl)=C(Cl)C(=O)N21
mutagenic call [3]: active; positive
